For 21 molecules, IC50, solubility and inhibition in vivo results are on record in ChEMBL document CHEMBL4732174, “Discovery of 6-(7-Nitro-2,1,3-benzoxadiazol-4-ylthio)hexanol Derivatives as Glutathione Transferase Inhibitors with Favorable Selectivity and Tolerated Toxicity” (J Med Chem, 2021).

One data set concerns HOS. As to the kind of experiment: Antiproliferative activity against human HOS cells assessed as inhibition of cell proliferation incubated for 72 hrs by MTT assay. Type of data set: functional, cell-based. Background: Formazan colour is commonly taken as a measure of viable cells.
In data set [1] the test system is 143B. As to the kind of experiment: Antiproliferative activity against human 143B cells assessed as inhibition of cell proliferation incubated for 72 hrs by MTT assay. Type of data set: functional, cell-based.
Data set [2] deals with Glutathione S-transferase P (Homo sapiens, UniProt P09211). As to the kind of experiment: Inhibition of GSTP1-1 (unknown origin) using reduced GSH and CDNB as substrate incubated for 10 mins followed by substrate addition by microplate reader analysis.
Glutathione S-transferase P, sequence (P09211 whole entry): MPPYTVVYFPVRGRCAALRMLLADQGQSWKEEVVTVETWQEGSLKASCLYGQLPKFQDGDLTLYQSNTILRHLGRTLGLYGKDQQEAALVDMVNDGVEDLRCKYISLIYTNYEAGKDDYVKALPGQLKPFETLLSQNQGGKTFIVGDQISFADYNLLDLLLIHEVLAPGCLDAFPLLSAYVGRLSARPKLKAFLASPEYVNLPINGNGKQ
The next data set deals with L02. As to the kind of experiment: Cytotoxicity against human L02 cells assessed as reduction in cell viability incubated for 72 hrs by MTT assay. Type of data set: cell-based. The following applies: L02, 72 h.
For data set [3], the target named is T1, Glutathione S-transferase Mu 2 (Homo sapiens, UniProt P28161).
T1 sequence (P28161 whole entry): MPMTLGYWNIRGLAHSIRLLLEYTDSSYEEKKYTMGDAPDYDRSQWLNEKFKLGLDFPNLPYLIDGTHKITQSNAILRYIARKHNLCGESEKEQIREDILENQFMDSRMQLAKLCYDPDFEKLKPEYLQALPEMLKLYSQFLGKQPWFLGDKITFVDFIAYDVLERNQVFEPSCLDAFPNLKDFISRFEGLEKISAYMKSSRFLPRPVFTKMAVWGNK
As to the kind of experiment: Inhibition of GSTM2-2 (unknown origin) using reduced GSH and CDNB as substrate incubated for 10 mins followed by substrate addition by microplate reader analysis.

Data set [4] is described as follows: Antiproliferative activity against […] B16 cells assessed as inhibition of cell proliferation incubated for 72 hrs by MTT assay. Type of data set: functional, cell-based. The settings on record: B16, 72 h.
Another data set deals with HUVEC. As to the kind of experiment: Cytotoxicity against HUVEC assessed as reduction in cell viability incubated for 72 hrs by MTT assay. It counts as cell-based. The settings on record: Homo sapiens.
The test system of a further data set is A549. As to the kind of experiment: Antiproliferative activity against human A549 cells assessed as inhibition of cell proliferation incubated for 72 hrs by MTT assay. The following applies: A549, 72 h. Type of data set: functional, cell-based.
A short description of data set [5]: Water solubility of the compound measured by UV-Visible spectral analysis. It counts as physicochemical. The settings on record: buffer.
For data set [6], the system named is 143B. As to the kind of experiment: Antitumor activity against human 143B cells xenografted in BALB/c nude mouse assessed as tumor growth inhibition at 5 mg/kg, po administered once daily for 28 consecutive days relative to control. Type of data set: functional. The following applies: 672 h, time 28 day, read-out: TGI.

As a reminder, the IC50 is the concentration that inhibits the measured activity by half. For `COc1ccc(NC(=O)CCC(=O)OCCCCCCSc2ccc([N+](=O)[O-])c3nonc23)cc1`, the IC50 with HOS was 1.8 µM; in the data set with 143B [1] it was 3.06 µM; in data set [2], 0.42 µM; in the data set on L02, 8.17 µM; in [3] it was 0.13 µM; in [4] it was 2.87 µM. In addition, the figures for the IC50 in the data set on HUVEC and with A549 were 1.59 µM and 6.48 µM, respectively.
As for `O=C(CCC(=O)OCCCCCCSc1ccc([N+](=O)[O-])c2nonc12)NCCN1CCCC1`, the IC50 in the data set on HOS amounted to 3.3 µM; in the data set on 143B [1], 5.58 µM; in [2] it was 0.46 µM; in the data set on L02, 6.58 µM; in data set [3], 0.2 µM; in data set [4] it was 3.5 µM. The IC50 came out at 6.07 µM in the data set with HUVEC and 3.24 µM in the data set on A549. Also, the solubility entry in data set [5] was “Soluble”.
Regarding `CN(C)CCNC(=O)CCC(=O)OCCCCCCSc1ccc([N+](=O)[O-])c2nonc12`, the IC50 with HOS stood at 5.02 µM; with 143B [1], 2.19 µM; in data set [2] it was 0.54 µM; in the data set on L02, 5.98 µM; in data set [3], 0.16 µM; in data set [4] it was 1.14 µM. Also, the IC50 was found to be 2.16 µM in the data set with HUVEC and 5.55 µM in the data set with A549. The solubility result in data set [5] is recorded as “Soluble”.
As for `O=C(CCC(=O)OCCCCCCSc1ccc([N+](=O)[O-])c2nonc12)Nc1ccccc1Cl`, the IC50 was 2.43 µM with 143B [1]; 15.5 µM in data set [2]; 5.85 µM in the data set on L02; 0.33 µM in data set [3]; 2.39 µM in data set [4]; 2.95 µM in the data set on HUVEC. In addition, in the data set with A549, the IC50 turned out to be 2.75 µM.
For the molecule `O=C(O)CCC(=O)OCCCCCCSc1ccc([N+](=O)[O-])c2nonc12`, the IC50 worked out at 8.74 µM in the data set with HOS; 2.83 µM in the data set with 143B [1]; 0.53 µM in [2]; 1.89 µM with L02; 0.16 µM in data set [3]; 3.65 µM in data set [4]. Also, the IC50 in the data set on HUVEC was found to be 0.74 µM; with A549, 3.64 µM.
Turning to `O=C(CCC(=O)OCCCCCCSc1ccc([N+](=O)[O-])c2nonc12)NCCN1CCOCC1`, the IC50 in the data set on HOS was 1.81 µM; with 143B [1], 2.82 µM; in data set [2], 35 µM; in the data set with L02 it was 3.01 µM; in data set [3], 0.1 µM; in data set [4], 1.8 µM. Besides, the IC50 with HUVEC amounted to 1.07 µM; in the data set with A549, 2.15 µM. In addition, in [5], the solubility result was “Soluble”.
On to `O=[N+]([O-])c1ccc(SCCCCCCO)c2nonc12`, for which the half-maximal inhibitory concentration (IC50) in the data set on HOS stood at 1.24 µM; in the data set with 143B [1] it was 4.08 µM; in data set [3], 0.02 µM; in data set [4], 1.35 µM; in the data set with A549, 2.88 µM. Further, in the data set with 143B [6], the inhibition in vivo at 5 mg/kg was determined as 38.6%.
Consider `O=C(CCC(=O)OCCCCCCSc1ccc([N+](=O)[O-])c2nonc12)Nc1cccc(Cl)c1`, for which the IC50 in the data set on HOS was 1.92 µM; in the data set with 143B [1], 2.89 µM; in data set [2] it was 28.8 µM; in the data set with L02 it was 6.93 µM; in data set [3] it was 1.1 µM; in [4], 3.11 µM. Further, the IC50 with HUVEC is 1.09 µM; with A549, 5.29 µM.
For the molecule `Cc1ccccc1NC(=O)CCC(=O)OCCCCCCSc1ccc([N+](=O)[O-])c2nonc12`, the IC50 was found to be 4.02 µM with HOS; 4.66 µM with 143B [1]; 4.1 µM in data set [2]; 9.49 µM with L02; 0.44 µM in data set [3]; 6.49 µM in data set [4]. Further, the 50% inhibitory concentration (IC50) was found to be 1.41 µM in the data set on HUVEC and 4.2 µM in the data set on A549.
Consider `O=C(CCC(=O)OCCCCCCSc1ccc([N+](=O)[O-])c2nonc12)Nc1ccc(C(F)(F)F)cc1`, for which the IC50 worked out at 3.2 µM in the data set with HOS; 2.1 µM in the data set on 143B [1]; 5.05 µM in [2]; 5.01 µM in the data set with L02; 0.09 µM in [3]; 1.12 µM in data set [4]. In addition, the IC50 with HUVEC was 1.39 µM; with A549 it was 4.02 µM.
Regarding `O=C(CCC(=O)N1CCCCC1)OCCCCCCSc1ccc([N+](=O)[O-])c2nonc12`, the IC50 is 1.79 µM in the data set with HOS; 1.9 µM in the data set on 143B [1]; 0.5 µM in data set [2]; 3.97 µM with L02; 0.11 µM in [3]; 0.86 µM in data set [4]. The IC50 in the data set with HUVEC amounted to 1.99 µM; in the data set on A549, 2.51 µM.
Take `O=C(CCC(=O)OCCCCCCSc1ccc([N+](=O)[O-])c2nonc12)Nc1ccccc1`: the IC50 with HOS amounted to 2.12 µM; in the data set on 143B [1], 3.85 µM; in data set [2] it was 10.2 µM; in the data set with L02, 6.49 µM; in data set [3], 0.7 µM; in data set [4], 1.26 µM. The results for the IC50 with HUVEC and with A549 were 2.49 µM and 1.96 µM, respectively.
As to `CCN(CC)CCCNC(=O)CCC(=O)OCCCCCCSc1ccc([N+](=O)[O-])c2nonc12`, the IC50 in the data set with HOS worked out at 9.06 µM; with 143B [1], 3.44 µM; in data set [2], 9.55 µM; in the data set with L02 it was 6.77 µM; in data set [3], 0.44 µM; in data set [4], 2.94 µM. The IC50 is 2.95 µM in the data set on HUVEC and 2.57 µM in the data set with A549. Moreover, the solubility entry in data set [5] is “Soluble”.
Turning to `Cc1ccc(NC(=O)CCC(=O)OCCCCCCSc2ccc([N+](=O)[O-])c3nonc23)cc1`, the IC50 in the data set on HOS amounted to 3.34 µM; in the data set on 143B [1] it was 3.25 µM; in data set [2], 6.8 µM; in the data set on L02, 7.32 µM; in [3], 0.39 µM; in [4] it was 1.95 µM. Further, the IC50 in the data set with HUVEC worked out at 2.34 µM; in the data set with A549, 5.24 µM.
With `O=C(CCC(=O)OCCCCCCSc1ccc([N+](=O)[O-])c2nonc12)Nc1ccc(F)c(Cl)c1`, the IC50 amounted to 2.8 µM in the data set on HOS; 2.99 µM in the data set on 143B [1]; 9.85 µM in data set [2]; 4.57 µM in the data set with L02; 0.47 µM in [3]; 4.17 µM in [4]. Also, the IC50 came to 2.32 µM in the data set on HUVEC and 3.21 µM in the data set with A549.
Regarding `O=C(CCC(=O)OCCCCCCSc1ccc([N+](=O)[O-])c2nonc12)Nc1ccccc1F`, the IC50 with HOS was found to be 2.35 µM; with 143B [1], 3.03 µM; in data set [2], 9.89 µM; in the data set on L02, 4.27 µM; in data set [3], 0.35 µM; in data set [4], 2.12 µM. Also, the IC50 is 0.84 µM in the data set with HUVEC and 2.44 µM in the data set with A549.
Take `O=C(CCC(=O)OCCCCCCSc1ccc([N+](=O)[O-])c2nonc12)Nc1ccc(Br)cc1`: the IC50 amounted to 2.16 µM with HOS; 2.71 µM in the data set on 143B [1]; 5.09 µM in [2]; 4.33 µM in the data set on L02; 32 µM in [3]; 2.64 µM in data set [4]. For the same molecule, the IC50 in the data set on HUVEC is 1.61 µM; in the data set with A549 it was 3.34 µM.
Take `O=C(CCC(=O)OCCCCCCSc1ccc([N+](=O)[O-])c2nonc12)Nc1ccc(F)cc1`: the IC50 turned out to be 2.08 µM with HOS; 2.5 µM in the data set on 143B [1]; 8.57 µM in data set [2]; 6.46 µM in the data set with L02; 0.32 µM in [3]; 2.02 µM in data set [4]. In addition, the IC50 with HUVEC is 1.74 µM; in the data set with A549 it was 6.3 µM.
With `COc1ccc(NC(=O)CCC(=O)OCCCCCCSc2ccc([N+](=O)[O-])c3nonc23)cc1OC`, the IC50 is 1.39 µM with HOS; 2.77 µM in the data set on 143B [1]; 6.47 µM in data set [2]; 4.1 µM in the data set with L02; 0.36 µM in [3]; 2.35 µM in data set [4]. The IC50 is 0.87 µM in the data set with HUVEC and 3.89 µM in the data set with A549.
Take `O=C(CCC(=O)N1CCOCC1)OCCCCCCSc1ccc([N+](=O)[O-])c2nonc12`: the IC50 in the data set with HOS worked out at 1.01 µM; in the data set with 143B [1] it was 1.53 µM; in data set [2], 0.33 µM; in the data set with L02 it was 3.24 µM; in [3], 0.17 µM; in [4], 0.82 µM. In addition, the IC50 was 5.34 µM in the data set on HUVEC and 1.67 µM with A549.
On to `COc1ccccc1NC(=O)CCC(=O)OCCCCCCSc1ccc([N+](=O)[O-])c2nonc12`, for which the concentration for half-maximal inhibition (IC50) in the data set on HOS worked out at 2.85 µM; with 143B [1], 2.12 µM; in data set [2], 4.05 µM; in the data set on L02 it was 4.49 µM; in data set [3], 0.28 µM; in [4] it was 1.38 µM. Also, the values for the IC50 in the data set on HUVEC and in the data set on A549 were 1.61 µM and 1.87 µM, respectively.
